Experimental data: patent US20240336659A1, “CELL-PENETRATING PEPTIDE, ANTI-CANCER PEPTIDE, AND PHARMACEUTICAL COMPOSITION FOR PREVENTING OR TREATING CANCER, COMPRISING SAME” (ONECUREGEN CO., LTD., priority 2021, published 2024)
Positions of bridges follow the written chain, without caps; N, C: chain ends. No end group written: not given here.

Key:
MMP9 [1] = assay: MMP9 Western blot of extracted xenograft tumor tissue; assay type: in vivo; conditions: extracted NUGC3 xenograft tumor, 10 mg/kg once a day
Experimental: After completion of the in vivo xenograft experiment in Example 6-1, changes in the protein expression level of MMP9 were measured in the extracted tumor tissue using immunohistochemical staining and Western blot methods. In addition, the amount of MMP9 protein in the tumor tissue was analyzed by Western blot experiment. The protein amount in the sample was quantified using a BCA assay method, and 20 μg of each sample was loaded, electrophoresed on SDS-PAGE, and then transferred to a nitrocellulose membrane. The membrane was blocked in a 5% skim milk solution for 1 hour, and then placed in MMP9 (1:1000, Abcam #ab76003) or ACTB (1:10,000, SantaCruz #sc-47778) antibody solution and reacted overnight at 4° C. The next day, the primary antibody was removed, the membrane was washed with a TBST buffer, and a HRP-conjugated anti-mouse or anti-rabbit secondary antibody was diluted at 1:10,000 in the 5% skim milk solution, and then reacted with the membrane at room temperature for 1 hour. The blot reacted with a SuperSignalTM West Pico Chemiluminescent substrate (ThermoFisher #34580) and analyzed on the ChemiDoc XRS+ System (Bio-Rad Laboratories, #1708265).

MMP9 [2] = assay: MMP9 immunohistochemical staining of extracted xenograft tumor tissue; assay type: in vivo; conditions: extracted NUGC3 xenograft tumor, 10 mg/kg once a day
Experimental: After completion of the in vivo xenograft experiment in Example 6-1, changes in the protein expression level of MMP9 were measured in the extracted tumor tissue using immunohistochemical staining and Western blot methods. The immunohistochemical staining was performed by the following method. The extracted tumor tissue was immobilized with 4% paraformaldehyde and embedded in paraffin, and then the tissue was sectioned at 4 μm thickness and attached to a glass slide. The tissue was hydrated with a xylene-ethanol reaction, and then reacted with an MMP9 antibody (1:100) at 4° C. overnight. The next day, the tissue sections were washed with PBS and reacted with a secondary antibody HRP-conjugated anti-rabbit antibody (1:100) at room temperature for 1 hour, and then the antibody was washed with PBS, and the reacted MMP9 was searched through the reaction by a DAB substrate kit (Vecotr Laboratories, #SK-4100). After DAB washing, nuclear staining was performed with a hematoxylin solution, and the tissue was emulsified through an ethanol-xylene reaction and then mounted. Tissue photographs were obtained using a Nikon TS2 microscope.

[3] = tested on: stomach cancer cell lines NUGC3; assay: Mouse xenograft experiment (tumor formation); assay type: in vivo, Balb-c/nude mouse; conditions: intraperitoneally 10 mg/kg once a day
Experimental: A mouse xenograft experiment was performed to analyze a tumor formation inhibitory effect of cancer therapeutic peptide fragments. Specifically, 5×10^6 stomach cancer cell lines NUGC3 were transplanted by subcutaneous injection into a flank site of a 6-week-old female Balb-c/nude mouse, and after one week (average tumor size 100 mm^3), Vehicle (0.9% saline), OCP5 (SEQ ID NO: 12), OCP5-VGLL1S84-15C (SEQ ID NO: 29), or OCP5-VGLL1S84-7C (SEQ ID NO: 33) was each administered intraperitoneally at 10 mg/kg once a day. Tumor size was measured with a digital caliper at 2-day intervals from the start of drug administration, and the tumor size (tumor size (mm^3)=long axis x short axis2) was calculated. The experiment was terminated when the average tumor size of the OCP5-administered group was 1,000 mm3, and then the tumor was extracted, and the tumor weight was measured.

[4] = tested on: stomach cancer cell lines NUGC3; assay: Wound healing assay (cancer cell migration); assay type: cell-based; conditions: 10 μM
Experimental: In order to analyze the possibility of metastasis inhibitory efficacy of stomach cancer cells by anticancer therapeutic peptides, a wound healing assay was performed to evaluate a migration inhibitory effect of stomach cancer cells. Specifically, 5×10^4 stomach cancer cell lines NUGC3 were subcultured in a 24-well plate, and then the next day, scratches were made at the center of the cells, and 10 μM OCP5-VGLL1S84-7C (SEQ ID NO: 33) was mixed into the cell culture medium and administered. Real-time cell images were acquired through Cytation5 (Biotek), and the degree of cancer cell migration was analyzed by calculating the average area (wound width, B) of the scratch area and the degree (% Confluence, C) to which cells were filled.

[5] = tested on: stomach cancer cell line AGS; assay: Cell growth inhibition (sulforhodamine B staining); assay type: cell-based; conditions: 10 μM
Experimental: (§1) Specifically, in order to confirm cell growth ability, a stomach cancer cell line NUGC3 and a breast cancer cell line SK-BR-3 were each subcultured in a 96-well plate, and the next day, peptide fragments Con, 7, and CC of Table 2 were treated with 100 μM each to the cell lines. After 72 hours, the cells were immobilized with a 10% trichloroacetic acid solution, and then stained the cell with a 0.4% sulforhodamine B solution for 1 hour, washed with acetic acid, and dried. Thereafter, the dried cells were dissolved in a 10 mM Tris solution and absorbance was measured at 510 nm using an ELISA plate reader.
(§2) Specifically, in order to confirm the cancer cell inhibition enhancing effect by enhancing the cell permeability of OCP5 among the novel synthesized CPPs, a cancer therapeutic peptide fragment represented by SEQ ID NO: 6 including the existing TAT and a cancer therapeutic peptide fragment represented by SEQ ID NO: 31 including the novel synthesized OCP5 were used. The stomach cancer cell lines NUGC3 and AGS, the breast cancer cell line SK-BR-3, and the pancreatic cancer cell line Capan-1 were treated with 25 μM SEQ ID NO: 6 and 100 μM SEQ ID NO: 31 for 72 hours, respectively, and the cancer cell growth inhibitory effects were compared in the same manner as in Example 1. […]

[6] = tested on: stomach cancer cell line NUGC3; assay: Cell growth inhibition (sulforhodamine B staining); assay type: cell-based
Experimental: as §1
In order to compare the cancer cell growth inhibitory effects of cancer therapeutic peptides according to cell-penetrating peptides, the stomach cancer cell line NUGC3 was treated with 10 μM each of cancer therapeutic peptide fragments in Table 4, and the cancer cell growth inhibitory effects were screened in the same manner as in Example 1.
Specifically, in order to confirm the cancer cell inhibition enhancing effect by enhancing the cell permeability of OCP5 among the novel synthesized CPPs, a cancer therapeutic peptide fragment represented by SEQ ID NO: 6 including the existing TAT and a cancer therapeutic peptide fragment represented by SEQ ID NO: 31 including the novel synthesized OCP5 were used. The stomach cancer cell lines NUGC3 and AGS, the breast cancer cell line SK-BR-3, and the pancreatic cancer cell line Capan-1 were treated with 25 μM SEQ ID NO: 6 and 100 μM SEQ ID NO: 31 for 72 hours, respectively, and the cancer cell growth inhibitory effects were compared in the same manner as in Example 1. […] Through this, it was confirmed that the novel CPP may be applied more effectively than the existing TAT to inhibit the cancer cell growth by the anticancer peptides.
To analyze the cancer cell growth inhibitory effect according to a length of the anticancer peptide fragment, OCP9-VGLLIS84-7 (SEQ ID NO: 43), OCP9-VGLLIS84-9CC (SEQ ID NO: 46), and OCP9-VGLLIS84-15 (SEQ ID NO: 49) were treated for each concentration to analyze the growth inhibitory effects of stomach cancer cell lines NUGC3 and NCI-N87. When stomach cancer cells were treated with cancer therapeutic peptides, the cancer cell growth inhibitory efficacy was shown in a concentration-dependent manner. In addition, it was confirmed that the growth inhibitory effect on the stomach cancer cell lines increased as the length of the anticancer peptide fragment increased (FIG. 7).
Specifically, the cancer cell growth inhibitory effect according to partial or entire cyclization of the anticancer peptide fragment was analyzed. The stomach cancer cell line NUGC3 was treated with a CPP fragment OCP9 (SEQ ID NO: 16), a partially cyclized sequence […] (SEQ ID NO: 33), or a sequence OCP9-VGLLIS84-7CC (SEQ ID NO: 40) including an entirely cyclized anticancer peptide at different concentrations of 1, 2.5, 5, 10, and 20 μM, respectively, and the cancer cell growth inhibitory effects were compared in the same manner as in Example 1.

[7] = tested on: lung cancer cell line A549; assay: Cell growth inhibition (sulforhodamine B staining); assay type: cell-based; conditions: A549, 10 μM
Experimental: as §1
(§3) It was investigated whether the cancer therapeutic peptide synthesized in this study could be used to treat various cancers other than stomach cancer. For this purpose, the cancer therapeutic peptides OCP and OCP5-VGLLIS84-7C were treated in stomach cancer cell lines […] and AGS, lung cancer cell lines H460 and A549, pancreatic cancer cell lines AsPC-1 and MIAPaca-1, and breast cancer cell lines MCF7 and MDA-MB-231 at concentrations of 10 μM. Thereafter, as a result of analysis in the same manner as in Example 1, the growth inhibitory efficacy of OCP5-VGLLIS84-7C cancer cells was confirmed compared to the control OCP5 (FIG. 14).

[8] = tested on: breast cancer cell line MCF7; assay: Cell growth inhibition (sulforhodamine B staining); assay type: cell-based; conditions: MCF7, 10 μM
Experimental: as §1, §3

[9] = tested on: pancreatic cancer cell line AsPC-1; assay: Cell growth inhibition (sulforhodamine B staining); assay type: cell-based; conditions: AsPC-1, 10 μM
Experimental: as §1, §3

[10] = tested on: pancreatic cancer cell line MIAPaca-1; assay: Cell growth inhibition (sulforhodamine B staining); assay type: cell-based; conditions: MIAPaca-1, 10 μM
Experimental: as §1, §3

[11] = tested on: breast cancer cell line MDA-MB-231; assay: Cell growth inhibition (sulforhodamine B staining); assay type: cell-based; conditions: MDA-MB-231, 10 μM
Experimental: as §1, §3

[12] = tested on: lung cancer cell line H460; assay: Cell growth inhibition (sulforhodamine B staining); assay type: cell-based; conditions: H460, 10 μM
Experimental: as §1, §3

[13] = tested on: stomach cancer cell line NUGC2; assay: Cell growth inhibition (sulforhodamine B staining); assay type: cell-based; conditions: NUGC2, 10 μM
Experimental: as §1, §3

[14] = tested on: breast cancer cell line SK-BR-3; assay: Cell growth inhibition (sulforhodamine B staining); assay type: cell-based; conditions: SK-BR-3, 100 μM, 72 hours; compared with linear anticancer peptide (SEQ ID NO: 5)
Experimental: as §1, §2

## SIIFRIFLHLQK-CPNQWRYSSPWTKPQPC-RRR (SIIFRIFLHLQKCPNQWRYSSPWTKPQPCRRR; disulfide 13-29) [OCP5-VGLL1S84-15C]
MMP9 [1]
  amount of MMP9 in tumor tissues (Western blot): reduced
MMP9 [2]
  amount of MMP9 protein in the tumor (immunohistochemical staining): significantly reduced
[3]
  tumor formation inhibitory effect compared to the vehicle group: 63%

## SIIFRIFLHLQK-CYSSPWTKC-RRR (SIIFRIFLHLQKCYSSPWTKCRRR; disulfide 13-21) [OCP5-VGLL1S84-7C]
MMP9 [1]
  amount of MMP9 in tumor tissues (Western blot): reduced
[4]
  migration of cancer cells (wound width, % Confluence): inhibited
[5]
  growth inhibitory efficacy compared to the control OCP5: confirmed
MMP9 [2]
  amount of MMP9 protein in the tumor (immunohistochemical staining): significantly reduced
[6]; NUGC3, 10 μM screening of Table 4 peptides
  cancer cell growth inhibitory effect: significant cancer cell growth inhibitory effect
[3]
  tumor formation inhibitory effect compared to the vehicle group: 45%
[7]
  growth inhibitory efficacy compared to the control OCP5: confirmed
[8]
  growth inhibitory efficacy compared to the control OCP5: confirmed
[9]
  growth inhibitory efficacy compared to the control OCP5: confirmed
[10]
  growth inhibitory efficacy compared to the control OCP5: confirmed
[11]
  growth inhibitory efficacy compared to the control OCP5: confirmed
[12]
  growth inhibitory efficacy compared to the control OCP5: confirmed
[13]
  growth inhibitory efficacy compared to the control OCP5: confirmed

## YGRKKRRQRRR-CYSSPWTKC (YGRKKRRQRRRCYSSPWTKC; disulfide 12-20) [SEQ ID NO: 6, TAT-cyclic anticancer peptide]
[6]; NUGC3, 100 μM, 72 hours, compared with linear anticancer peptide (SEQ ID NO: 5)
  cell growth inhibitory effect: significantly superior
[14]
  cell growth inhibitory effect: significantly superior
